Assay results reported in PubChem BioAssay (NCI).
Several values for one entry are separate records, joined by “and”; a condition that tells them apart may be missing. Identical values can stand only once.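 Cultured in 96-well plates, cells were exposed to test compound for 48 hours across five concentrations. Here, GI50 denotes the concentration required for 50% inhibition of growth. Definition used: TGI = concentration required for complete inhibition of growth.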

Assays:
Test in all cases: NCI tumour cell line growth inhibition, 48 h
XF 498 CNS = tested on: XF 498 CNS
DLD-1 colon = tested on: DLD-1 colon
RXF-631 renal = tested on: RXF-631 renal
SNB-78 CNS = tested on: SNB-78 CNS
KM20L2 colon = tested on: KM20L2 colon
LXFL 529 NSCLC = tested on: LXFL 529 NSCLC
DMS 114 small cell lung = tested on: DMS 114 small cell lung
HOP-18 NSCLC = tested on: HOP-18 NSCLC
MDA-N = tested on: MDA-N
P388 leukemia = tested on: P388 leukemia
SN12K1 renal = tested on: SN12K1 renal
P388/ADR leukemia = tested on: P388/ADR leukemia

Row | Compound | TGI (XF 498 CNS) | TGI (DLD-1 colon) | TGI (RXF-631 renal) | TGI (SNB-78 CNS) | TGI (KM20L2 colon) | TGI (LXFL 529 NSCLC) | TGI (DMS 114 small cell lung) | TGI (HOP-18 NSCLC) | TGI (MDA-N) | other results
1 | Cc1cc(NCCCCCCNc2cc(C)nc3cc(N(C)C)ccc23)c2ccc(N(C)C)cc2n1 | 59 µM | > 100 µM | > 100 µM |  |  |  |  |  |  | 
2 | Cc1cc2c(C)nn(Cc3ccccc3)c2c(C(N)=O)c1C | > 100 µM | > 100 µM |  | > 100 µM | > 100 µM | > 100 µM | > 100 µM |  |  | 
3 | CCN(CC)CCOc1ccc(CCc2cc(OC)c(OC)c(OC)c2)cc1 | 57.7 µM | > 100 µM | > 100 µM | > 100 µM | > 100 µM | > 100 µM | 73.8 µM | > 100 µM |  | 
4 | COc1cc2oc3cc(=O)cc4oc(-c5ccccc5)cc(c2c2c1CCC(c1ccccc1)O2)c43 (stereo unspecified) |  |  |  |  |  |  |  |  | > 100 µM | 
5 | O=C1NC2(CCCCCC2)C2CCCCCCC12O (stereo unspecified) | > 100 µM | > 100 µM |  | > 100 µM |  | > 100 µM | > 100 µM | > 100 µM |  | 
6 | Clc1ccc(N=Nc2nc3ccccc3nc2N=Nc2ccc(Cl)cc2Cl)c(Cl)c1 | > 100 µM | > 100 µM |  | > 100 µM | > 100 µM | > 100 µM | > 100 µM |  |  | 
7 | COc1cc([C@@H]2c3cc4c(cc3[C@@H](OC(=O)c3ccc(N)cc3)C3COC(=O)[C@@H]32)OCO4)cc(OC)c1O (stereo partly specified) |  | > 95 µM | 42 µM | > 95 µM | 3.57 µM | > 95 µM |  | > 95 µM |  | 
8 | N.N.N.N.N.[Cl-].[Co+3].c1ccc(-c2nn[n-]n2)cc1 |  | > 100 µM |  | > 100 µM | > 100 µM | > 100 µM |  | > 100 µM |  | GI50 (SNB-78 CNS): > 100 µM; GI50 (KM20L2 colon): > 100 µM; GI50 (LXFL 529 NSCLC): > 100 µM; GI50 (DLD-1 colon): > 100 µM; GI50 (HOP-18 NSCLC): 93.1 µM
9 | c1ccc(CN2CCC3(CC2)SSC2(CCN(Cc4ccccc4)CC2)S3)cc1 |  |  |  |  |  |  |  |  | > 100 µM | 
10 | c1ccc(C(c2ccccc2)c2cccnc2)cc1 |  | > 100 µM | > 100 µM | > 100 µM | > 100 µM |  | > 100 µM | > 100 µM |  | 
11 | O=C(NC(=O)c1cn(CCN(CCO)C(=O)NCCCCCCNC(=O)N(CCO)CCn2cc(C(=O)NC(=O)OCc3ccccc3)c(=O)[nH]c2=O)c(=O)[nH]c1=O)OCc1ccccc1 | > 100 µM | > 100 µM | > 100 µM | > 100 µM | > 100 µM |  | > 100 µM | > 100 µM |  | 
12 | CC1CC2OC(=O)C(C)C2CC2(C)C(OC3OC(CO)C(O)C(O)C3O)OCCC12 (stereo unspecified) |  |  |  |  |  |  |  |  | > 100 µM | 
13 | c1cc2n(n1)CCN2 | 6960 µM | > 10000 µM |  | > 8740 µM | > 10000 µM |  | > 8170 µM | > 10000 µM | > 10000 µM | TGI (P388 leukemia): 2770 µM; TGI (SN12K1 renal): 5980 µM; TGI (P388/ADR leukemia): 4830 µM
14 | C[C@]12CCC(=O)C=C1CC[C@@H]1C2CC[C@]2(C)Nc3c(cnn3-c3ccccc3)CC12 (stereo partly specified) | > 100 µM | > 100 µM | > 100 µM | > 100 µM | > 100 µM | > 100 µM | > 100 µM |  |  | 
15 | COC1/C=C/C(C)C(C(C)C(OC)C(C)CCC(=O)C(C)C(C/C=C/N(C)C=O)OC)OC(=O)/C=C/C=C(\C)CC(OC)CC2=CC(=O)O[C@H](C2)C(C)C(OC)CC(OC)/C=C/C(C)C(OC)C1 (stereo partly specified) |  |  |  |  |  |  |  |  | 1.11 µM | GI50 (MDA-N): 0.0472 µM
16 | O=C(O)C1OC1(c1cccc(Cl)c1)c1ccccc1Cl (stereo unspecified) |  |  |  |  |  |  |  |  | 65.6 µM | 
17 | O=c1c2ccccc2c(=O)n2n1CC=CC2 |  | > 100 µM |  | > 100 µM | > 100 µM | > 100 µM | > 100 µM | > 100 µM |  | 
18 | COc1ccc2c(=O)cc(-c3ccncc3)oc2c1OC |  |  |  |  |  |  |  |  | 98.9 µM | 
19 | CCOC1=C2C(=O)OC(=O)C2C2CCCCC2=C1 (stereo unspecified) | > 100 µM | > 100 µM |  | > 100 µM |  | > 100 µM | > 100 µM |  |  | 

Row | Compound | TGI (XF 498 CNS) | TGI (DLD-1 colon) | TGI (RXF-631 renal) | TGI (SNB-78 CNS) | TGI (KM20L2 colon) | TGI (LXFL 529 NSCLC) | TGI (DMS 114 small cell lung) | TGI (HOP-18 NSCLC) | TGI (MDA-N) | other results
20 | C#CC1(O)C(COP(=O)(O)OC(COCCCCCCCCCCCCCCCCCC)COP(=O)(O)OCC2OC(n3cc(F)c(=O)[nH]c3=O)CC2O)OC(n2ccc(N)nc2=O)C1O (stereo unspecified) |  |  |  |  |  |  |  |  | 12.4 µM and 13.7 µM | 
21 | Cc1oc2c(C)c3oc(=O)cc(C)c3cc2c1CN1C(=O)C2OCCOCCOCCOCCOCCO[C@H]2C1=O (stereo partly specified) |  | > 100 µM | 74.2 µM | > 100 µM | > 100 µM | > 100 µM | > 100 µM | > 100 µM |  | 
22 | O=C(CC(=O)C1=CNc2ccccc2S1)C(=O)Nc1ccc(Cl)cc1 | > 50 µM | > 50 µM | > 50 µM | > 50 µM | > 50 µM | > 50 µM | > 50 µM |  |  | 
23 | COC1OC(CBr)C(OC(=O)c2ccccc2)C(O)C1Br (stereo unspecified) | > 10 µM | > 100 µM |  | > 100 µM | > 100 µM | > 100 µM |  | > 100 µM |  | 
24 | O=CN/C=C/c1cccc(O)c1 | > 100 µM | > 100 µM |  | > 100 µM | > 100 µM | > 100 µM | > 100 µM | > 100 µM | > 85 µM | 
25 | COc1c(O)cc2oc(-c3ccc(O)cc3)cc(=O)c2c1O |  |  |  |  |  |  |  |  | > 100 µM | 
26 | COc1cc(NC(C)CCCN)c2ncccc2c1 (stereo unspecified) | 73.2 µM | > 100 µM | > 100 µM | > 100 µM | > 100 µM | > 100 µM | > 89 µM | > 100 µM | > 82.1 µM | 
27 | OCC(O)C(Cl)CCl (stereo unspecified) |  |  |  |  |  |  |  |  | > 100 µM | 
28 | O=C(O/C(=C(/N=Nc1ccccc1)c1ccccc1)c1ccccc1)c1ccccc1 | > 100 µM | > 100 µM | > 100 µM | > 100 µM | > 100 µM | > 100 µM | > 100 µM | > 100 µM |  | 
29 | O=c1cc(-c2ccccc2F)[nH]c2ccc(N3CCCC3)cc12 |  |  |  |  |  |  |  |  |  | GI50 (MDA-N): < 0.001 µM
30 | O=C1C2C3C=C4c5ccccc5N(c5ccccc5)C4(C2C(=O)N1c1ccc(Cl)cc1)[C@H]1C(=O)N(c2ccc(Cl)cc2)C(=O)[C@@H]31 (stereo partly specified) | > 100 µM | > 100 µM | > 100 µM | > 100 µM | > 100 µM | > 100 µM | > 100 µM | > 100 µM |  | 
31 | COCC(O)Cn1ccnc1[N+](=O)[O-] (stereo unspecified) | > 100 µM |  |  | > 100 µM | > 100 µM |  | > 100 µM |  |  | 
32 | CC1OC(OC2C[C@](O)(C(=O)CF)Cc3c(O)c4c(c(O)c32)C(=O)c2ccccc2C4=O)CC(N)C1O (stereo partly specified) | 0.389 µM | 0.333 µM |  | 3.53 µM | 0.353 µM | 1.27 µM | 0.142 µM |  | 0.333 µM | 
33 | Cc1ccc(SSc2ccc(C)cc2C(=O)O)c(C(=O)O)c1 |  | > 100 µM | > 100 µM | > 100 µM | > 100 µM | > 100 µM |  |  |  | 
34 | COC(=O)c1ccccc1OCc1cc(=O)oc2ccc(C)cc12 | 90.4 µM | > 100 µM | > 100 µM |  | > 100 µM | > 100 µM | > 100 µM |  | > 100 µM | 
35 | C1=CC=C2NCCCCCCCNC3=CC=CC=CC3=NCCCCCCCN=C2C=C1 | > 100 µM | > 100 µM | 25.7 µM |  | > 100 µM | > 100 µM |  |  |  | 
36 | COc1ccc(C2CC(C)(O)Oc3cc4c(cc32)OCO4)cc1 (stereo unspecified) |  |  |  |  |  |  |  |  | 36.4 µM | 
37 | O=c1[nH]nc2ccccc2c1Cc1ccccc1 | > 100 µM | > 100 µM |  | > 100 µM | > 100 µM |  | > 100 µM | > 100 µM |  | 
38 | O=C(O)c1cc2ccc3ccccc3c2oc1=O |  |  |  |  |  |  |  |  | > 100 µM | 
